Source: patent US20220227707A1, “COMPOUNDS AND COMPOSITIONS FOR TREATING CONDITIONS ASSOCIATED WITH NLRP ACTIVITY” (Novartis AG, priority 2019, published 2022)

Tested on: IL-1β production in PMA-differentiated THP-1 cells
Experiment: IL-1β production in PMA-differentiated THP-1 cells stimulated with gramicidin (hTHP-1 assay)
Assay type: cell-based, human
Method: Procedure 1: IL-1β Production in PMA-Differentiated THP-1 Cells Stimulated with Gramicidin
THP-1 cells were purchased from the American Type Culture Collection and sub-cultured according to instructions from the supplier. Cells were cultured in complete RPMI 1640 (containing 10% heat inactivated FBS, penicillin (100 units/ml) and streptomycin (100 μg/ml)), and maintained in log phase prior to experimental setup. Prior to the experiment, compounds were dissolved in dimethyl sulfoxide (DMSO) to generate a 30 mM stock. The compound stock was first pre-diluted in DMSO to 3, 0.34, 0.042 and 0.0083 mM intermediate concentrations and subsequently spotted using Echo550 liquid handler into an empty 384-well assay plate to achieve desired final concentration (e.g. 100, 33, 11, 3.7, 1.2, 0.41, 0.14, 0.046, 0.015, 0.0051, 0.0017 μM). DMSO was backfilled in the plate to achieve a final DMSO assay concentration of 0.37%. The plate was then sealed and stored at room temperature until required.
THP-1 cells were treated with PMA (Phorbol 12-myristate 13-acetate) (20 ng/ml) for 16-18 hours. On the day of the experiment the media was removed and adherent cells were detached with trypsin for 5 minutes. Cells were then harvested, washed with complete RPMI 1640, spun down, and resuspended in RPMI 1640 (containing 2% heat inactivated FBS, penicillin (100 units/ml) and streptomycin (100 μg/ml). The cells were plated in the 384-well assay plate containing the spotted compounds at a density of 50,000 cells/well (final assay volume 50 μl). Cells were incubated with compounds for 1 hour and then stimulated with gramicidin (5 μM) (Enzo) for 2 hours. Plates were then centrifuged at 340 g for 5 min. Cell free supernatant ([…]) was collected using a 96-channel PlateMaster (Gilson) and the production of IL-1β was evaluated by HTRF (cisbio). The plates were incubated for 18 h at 4° C. and read using the preset HTRF program (donor emission at 620 nm, acceptor emission at 668 nm) of the SpectraMax i3x spectrophotometer (Molecular Devices, software SoftMax 6). A vehicle only control and a dose titration of CRID3 (100-0.0017 μM) were run concurrently with each experiment.
Procedure 2: […] Production in PMA-Differentiated THP-1 Cells Stimulated with Gramicidin
THP-1 cells were purchased from the American Type Culture Collection and sub-cultured according to instructions from the supplier. Prior to experiments, cells were cultured in complete RPMI 1640 (containing 10% heat inactivated FBS, penicillin (100 units/ml) and streptomycin (100 μg/ml)), and maintained in log phase prior to experimental setup. Prior to the experiment THP-1 were treated with PMA (Phorbol 12-myristate 13-acetate) (20 ng/ml) for 16-18 hours. Compounds were dissolved in dimethyl sulfoxide (DMSO) to generate a 30 mM stock. On the day of the experiment the media was removed and adherent cells were detached with trypsin for 5 minutes. Cells were then harvested, washed with complete RPMI 1640, spun down, resuspended in RPMI 1640 (containing 2% heat inactivated FBS, penicillin (100 units/ml) and streptomycin (100 μg/ml). The cells were plated in a 384-well plate at a density of 50,000 cells/well (final assay volume 50 μl). Compounds were first dissolved in assay medium to obtain a 5× top concentration of 500 μM. 10 step dilutions (1:3) were then undertaken in assay medium containing 1.67% DMSO. 5× compound solutions were added to the culture medium to achieve desired final concentration (e.g. 100, 33, 11, 3.7, 1.2, 0.41, 0.14, 0.046, 0.015, 0.0051, 0.0017 μM). Final DMSO concentration was at 0.37%. Cells were incubated with compounds for 1 hour and then stimulated with gramicidin (5 μM) (Enzo) for 2 hours. Plates were then centrifuged at 340 g for 5 min. Cell free supernatant (40 μL) was collected using a 96-channel PlateMaster (Gilson) and the production of IL-1β was evaluated by HTRF (cisbio). A vehicle only control and a dose titration of CRID3 (100-0.0017 μM) were run concurrently with each experiment. […]

[1] = Homo sapiens, THP-1, Average IC50, hTHP-1 assay containing 2% fetal bovine serum, Table 10, class symbols
[2] = Average IC50, hTHP-1 assay containing 2% fetal bovine serum, Table 10, numeric values
[3] = Homo sapiens, THP-1, Average IC50, hTHP-1 assay containing 2% fetal bovine serum, Table 10, numeric values
[4] = Homo sapiens, THP-1, Average IC50, hTHP-1 assay containing 2% fetal bovine serum, Table 3B, class symbols
[5] = Average IC50, hTHP-1 assay containing 2% fetal bovine serum, Table 10, class symbols

Structure (SMILES): CC(C)(O)c1ccc(CS(N)(=O)=NC(=O)Nc2c3c(cc4c2CCC4)CCC3)cc1 (centres unmarked) [Compound 165, N′-((1,2,3,5,6,7-hexahydro-s-indacen-4-yl)carbamoyl)-1-(4-(2-hydroxypropan-2-yl)phenyl)methane-sulfonimidamide]
- IC50 [1]: 0.2 to 1 µM

Structure (SMILES): CC1(S(N)(=O)=NC(=O)Nc2c3c(cc4c2CCC4)CCC3)CC1 (centres unmarked) [Compound 163]
- IC50 [2]: > 30 µM

Structure (SMILES): CC(C)c1cc(F)cc(C(C)C)c1CC(=O)NS(=O)(=O)Cc1ccc(C(=O)O)cc1 [Compound 518]
- IC50 [3]: > 100 µM

Structure (SMILES): CN1CCC(S(N)(=O)=NC(=O)Nc2c3c(cc4c2CCC4)CCC3)CC1 (centres unmarked) [Compound 140]
- IC50 [2]: > 30 µM

Structure (SMILES): CC(=O)NS(C)(=O)=NC(=O)Nc1c2c(cc3c1CCC3)CCC2 (centres unmarked) [Compound 111]
- IC50 [1]: 5 to 30 µM

Structure (SMILES): CN(C)Cc1ccc(CS(N)(=O)=NC(=O)Nc2c3c(cc4c2CCC4)CCC3)cc1 (centres unmarked) [Compound 104, 1-(4-((dimethylamino)methyl)pheny1)-N′-((1,2,3,5,6,7-hexahydro-s-indacen-4-yl)carbamoyl) methane-sulfonimidamide]
- IC50 [1]: 1 to 5 µM

Structure (SMILES): CC(CN(C)C)CS(N)(=O)=NC(=O)Nc1c2c(cc3c1CCC3)CCC2 (centres unmarked) [Compound 126, 3-(dimethylamino)-N′-((1,2,3,5,6,7-hexahydro-s-indacen-4-yl)carbamoyl)-2-methylpropane-1-sulfonimidamide]
- IC50 [3]: > 30 µM

Structure (SMILES): CN(C)CCCC(=O)NS(C)(=O)=NC(=O)Nc1c2c(cc3c1CCC3)CCC2 (single isomer, unassigned) [Compound 118, 4-(dimethylamino)-N—(N-((1,2,3,5,6,7-hexahydro-s-indacen-4-yl)carbamoyl)-S-methylsulfonimidoyl)butanamide]
- IC50 [3]: > 30 µM

Structure (SMILES): CC(C)c1cc(F)cc(C(C)C)c1CC(=O)N=S(N)(=O)C1CC1 (centres unmarked) [Compound 307]
- IC50 [1]: 0.008 to 0.04 µM

Structure (SMILES): CC(C)c1cc(C#N)cc(C(C)C)c1CC(=O)NS(=O)(=O)N1CCC(CN(C)C)CC1 [Compound 202B, 2-(4-cyano-2,6-diisopropylphenyl)-N-((4-((dimethylamino)methyl)piperidin-1-yl)sulfonyl) acetamide]
- IC50 [4]: 5 to 30 µM

Structure (SMILES): CC(C)c1cc(F)cc(C(C)C)c1CC(=O)N=S(N)(=O)C1CCCC1 (centres unmarked) [Compound 306]
- IC50 [2]: > 30 µM

Structure (SMILES): CC(C)c1cc(F)cc(C(C)C)c1CC(=O)NS(=O)(=O)CCC(=O)O [Compound 515]
- IC50 [3]: > 100 µM

Structure (SMILES): CC(C)c1cc(F)cc(C(C)C)c1CC(=O)NS(=O)(=O)Cc1cc(-c2ccccc2)no1 [Compound 519]
- IC50 [3]: > 30 µM

Structure (SMILES): NS(=O)(=NC(=O)Nc1c2c(cc3c1CCC3)CCC2)C1CCCC1 (centres unmarked) [Compound 151]
- IC50 [3]: > 30 µM

Structure (SMILES): CN(C)CC1(S(N)(=O)=NC(=O)Nc2c3c(cc4c2CCC4)CCC3)CC1 (centres unmarked) [Compound 160]
- IC50 [2]: > 30 µM

Structure (SMILES): CN1CCC(CS(N)(=O)=NC(=O)Nc2c3c(cc4c2CCC4)CCC3)C1 (single isomer, unassigned) [Compound 113]
- IC50 [3]: > 30 µM

Structure (SMILES): CC(CN(C)C)CS(N)(=O)=NC(=O)Nc1c2c(cc3c1CCC3)CCC2 (centres unmarked) [Compound 121]
- IC50 [5]: 5 to 30 µM

Structure (SMILES): NS(=O)(=NC(=O)Nc1c2c(cc3c1CCC3)CCC2)C1CC1 (single isomer, unassigned) [Compound 155]
- IC50 [5]: 5 to 30 µM

Structure (SMILES): CN(C)CCCC(=O)NS(C)(=O)=NC(=O)Nc1c2c(cc3c1CCC3)CCC2 (single isomer, unassigned) [Compound 119, 4-(dimethylamino)-N—(N-((1,2,3,5,6,7-hexahydro-s-indacen-4-yl)carbamoyl)-S-methylsulfonimidoyl)butanamide]
- IC50 [1]: 5 to 30 µM

Structure (SMILES): CC(C)c1cc(F)cc(C(C)C)c1CC(=O)NS(=O)(=O)Cc1cccc(CN)c1 [Compound 508]
- IC50 [3]: > 100 µM

Structure (SMILES): CN1CCC(S(N)(=O)=NC(=O)Nc2c3c(cc4c2CCC4)CCC3)CC1 (centres unmarked) [Compound 137]
- IC50 [3]: > 30 µM

Structure (SMILES): CN(C)S(N)(=O)=NC(=O)Nc1c2c(cc3c1CCC3)CCC2 (centres unmarked) [Compound 101B, 3-[amino(dimethylamino)oxo-lambda6-sulfanylidene]-1-(1,2,3,5,6,7-hexahydro-s-indacen-4-yl)urea]
- IC50 [4]: 5 to 30 µM

Structure (SMILES): CC(C)c1cc(F)cc(C(C)C)c1CC(=O)N=S(N)(=O)CCCN(C)C (centres unmarked) [Compound 302]
- IC50 [2]: > 30 µM
